Experimental data from patent US20260317272A1, “USE OF STROBILURIN TYPE COMPOUNDS FOR COMBATING PHYTOPATHOGENIC FUNGI CONTAINING AN AMINO ACID SUBSTITION F129L IN THE MITOCHONDRIAL CYTOCHROME B PROTEIN CONFERRING RESISTANCE TO QO INHIBITORS XVI” (priority 2023, published 2026).

Assays:
Phakopsora pachyrhizi [1] = assay: Use Example 3: protective control of soybean rust on soybeans (PHAKPA P2); format: in vivo; conditions: 16 ppm, 2 days before inoculation, F129L strain, up to 14 days, untreated 90
Method: (§1) The compound was dissolved in a mixture of acetone and/or dimethylsulfoxide and the wetting agent/emulsifier Wettol, which is based on ethoxylated alkylphenoles, in a ratio (volume) solvent-emulsifier of 99 to 1 to give a total volume of 5 ml. Subsequently, water was added to total volume of 100 ml. This stock solution was then diluted with the described solvent-emulsifier-water mixture to the final concentration given in the tables below.
Use Example 3. Protective Control of Soybean Rust on Soybeans Caused by Phakopsora pachyrhizi (PHAKPA P2)
(§2) Leaves of potted soybean seedlings were sprayed to run-off with the previously described spray solution, containing the concentration of active ingredient or their mixture as described below. The plants were allowed to air-dry. The trial plants were cultivated for 2 days in a greenhouse chamber at 23-27° C. and a relative humidity between 60 and 80%. Then the plants were inoculated with spores of Phakopsora pachyrhizi. The strain used contains the amino acid substitution F129L in the mitochondrial cytochrome b protein conferring resistance to Qo inhibitors. To ensure the success the artificial inoculation, the plants were transferred to a humid chamber with a relative humidity of about 95% and 20 to 24° C. for 24 hr. The trial plants were cultivated for up to 14 days in a greenhouse chamber at 23 to 27° C. and a relative humidity between 60 and 80%. The extent of fungal attack on the leaves was visually assessed as % diseased leaf area, the disease level of untreated controls was usually higher than 85%.

Pyrenophora teres = assay: Use Example 11: control of net blotch on barley (PYRNTE P1); format: in vivo, Pyrenophora (syn. Drechslera) teres; conditions: F129L strain, inoculated the next day, 16 ppm, untreated 75%
Method: as §1
Use Example 11. Control of Net Blotch on Barley Caused by Pyrenophora teres (PYRNTE P1)
The first fully developed leaves of potted barley plants were sprayed to run-off previously described spray solution, containing the concentration of active ingredient or their mixture mentioned in the table below. The next day the treated plants were inoculated with an aqueous spore suspension Pyrenophora (syn. Drechslera) teres. The strain used contains the amino acid substitution F129L in the mitochondrial cytochrome b protein conferring resistance to Qo inhibitors. Then the trial plants were cultivated for up to 19 days at 20-24° C. and a relative humidity close to 70%, the extent of fungal attack on the leaves was visually assessed as % diseased leaf area.

Phakopsora pachyrhizi [2] = assay: Use Example 5: protective control of soybean rust on soybeans (PHAKPA P9); format: in vivo; conditions: 16 ppm, 9 days before inoculation, F129L strain, up to 14 days, untreated 85
Method: as §1
Use Example 5. Protective Control of Soybean Rust on Soybeans Caused by Phakopsora pachyrhizi (PHAKPA P9)
as §2, with “cultivated for 9 days in” for “cultivated for 2 days in”, “the success of the artificial” for “the success the artificial”, “for 24 h. The trial” for “for 24 hr. The trial”, “chamber at 23-27° C. and” for “chamber at 23 to 27° C. and”, “diseased leaf area.” for “diseased leaf area, the disease level of untreated controls was usually higher than 85%.”

Phakopsora pachyrhizi [3] = assay: Use Example 4: protective control of soybean rust on soybeans (PHAKPA P6); format: in vivo; conditions: 16 ppm, six days before inoculation, F129L strain, up to 14 days, untreated 90
Method: as §1
Use Example 4. Protective Control of Soybean Rust on Soybeans Caused by Phakopsora pachyrhizi (PHAKPA P6)
as §2, with “active ingredient as described” for “active ingredient or their mixture as described”, “cultivated for six days in” for “cultivated for 2 days in”, “95% and 23 to 27°” for “95% and 20 to 24°”, “23 to 27° C. for” for “20 to 24° C. for”

Puccinia triticina = assay: Use Example 15: activity against Puccinia triticina (PUCCRT, brown rust on wheat) in field; format: in vivo; conditions: for Efficacy, %: Abbot's formula, B23; for infection rate, %: B23 (23 days after second treatment), flag leaf
Method: Use Example 15. Activity Against Puccinia triticina (PUCCRT, Brown Rust on Wheat) in Field
Trials were conducted under field conditions in Spain. Spring wheat was planted and grown with adequate supply of water and nutrients. Two applications (A and B) of the test compounds were made at onset of disease (application A) and at second application at an interval of 22 days (application B). The spray solutions were prepared by mixing experimental formulations of the test compounds (50 g/L EC) in water, adding 124 g/ha Plurafac LF301 and Plurafac LF1312 (BASF, low-foaming non-ionic surfactants consisting of alkoxylated, predominantly unbranched fatty alcohols containing higher alkene oxides alongside ethylene oxide), respectively. The spray solutions were applied with 300 I/ha spray volume with a flat fan nozzle.
The infestation levels for brown rust (Puccinia triticina) were evaluated 23 days after the second fungicide treatment (B23), a mean value across the flag leaf level was calculated. In addition, efficacy was calculated using Abbot's formula as in use example 14.

[4] = Table 8, 75 g a.i./ha, untreated infection 75%
[5] = Table 8, 150 g a.i./ha, untreated infection 75%
[6] = Table 8, 75 g a.i./ha, untreated 75%
[7] = Table 8, 150 g a.i./ha, untreated 75%
[8] = Table 10, 75 g a.i./ha, untreated infection 50%
[9] = Table 10, 150 g a.i./ha, untreated infection 50%
[10] = Table 10, 75 g a.i./ha, untreated 50%
[11] = Table 10, 150 g a.i./ha, untreated 50%

SMILES	Diseased leaf area (%) (Phakopsora pachyrhizi [1])	Diseased leaf area (%) (Pyrenophora teres)	Diseased leaf area (%) (Phakopsora pachyrhizi [2])	Diseased leaf area (%) (Phakopsora pachyrhizi [3])	Efficacy, % (Puccinia triticina; [4])	Efficacy, % (Puccinia triticina; [5])	infection rate, % (Puccinia triticina; [6])	infection rate, % (Puccinia triticina; [7])	Efficacy, % (Puccinia triticina; Table 9, 75 g a.i./ha, untreated infection 74%)	Efficacy, % (Puccinia triticina; Table 9, 150 g a.i./ha, untreated infection 74%)	infection rate, % (Puccinia triticina; Table 9, 75 g a.i./ha, untreated 74%)	infection rate, % (Puccinia triticina; Table 9, 150 g a.i./ha, untreated 74%)	Efficacy, % (Puccinia triticina; [8])	Efficacy, % (Puccinia triticina; [9])	infection rate, % (Puccinia triticina; [10])	infection rate, % (Puccinia triticina; [11])
CNC(=O)/C(=N/OC)c1cccc(C)c1CO/N=C(\COC)c1c(F)cc(F)cc1F [Compound 1, (2E)-2-methoxyimino-2-[2-[[(Z)-[2-methoxy-1-(2,4,6-trifluorophenyl)ethylidene]amino]oxymethyl]-3-methyl-phenyl]-N-methyl-acetamide]	0%	5%	0%	0%	60%	89%	30%	8%								
COC/C(=N\OCc1c(C)cccc1/C(=N\OC)C(=O)OC)c1c(F)cc(F)cc1F [Compound 2, methyl (2E)-2-methoxyimino-2-[2-[[(Z)-[2-methoxy-1-(2,4,6-trifluorophenyl)ethylidene]amino]oxymethyl]-3-methyl-phenyl]acetate]	6%	6%	2%	7%	23%	40%	58%	45%								
CO/C=C(/C(=O)OC)c1cccc(C)c1CO/N=C(\COC)c1ccc(F)cc1Cl [Compound 3]	1%	3%	0%	4%					66%	73%	25%	20%				
CO/C=C(/C(=O)OC)c1cccc(C)c1CO/N=C(\COC)c1c(F)cc(F)cc1F [Compound 4, methyl (E)-3-methoxy-2-[2-[[(Z)-[2-methoxy-1-(2,4,6-trifluorophenyl)ethylidene]amino]oxymethyl]-3-methyl-phenyl]prop-2-enoate]	0%	5%	0%	0%	95%	97%	4%	2%								
CNC(=O)/C(=N/OC)c1cccc(C)c1CO/N=C(\COC)c1ccc(F)c(F)c1 [Compound 5, (2E)-2-[2-[[(Z)-[1-(3,4-difluorophenyl)-2-methoxy-ethylidene]amino]oxymethyl]-3-methylphenyl]-2-methoxyimino-N-methyl-acetamide]	0%	3%	1%	0%									84%	92%	8%	4%
CO/C=C(/C(=O)OC)c1cccc(C)c1CO/N=C(\COC)c1ccc(Cl)cc1Cl [Compound 6, methyl (E)-2-[2-[[(Z)-[1-(2,4-dichlorophenyl)-2-methoxy-ethylidene]amino]oxymethyl]-3-methyl-phenyl]-3-methoxy-prop-2-enoate]	13%	7%	9%	9%									40%	50%	30%	25%
CNC(=O)/C(=N/OC)c1cccc(C)c1CO/N=C(\COC)c1c(F)cc(OC)cc1F [Compound 7, (2E)-2-[2-[[(Z)-[1-(2,6-difluoro-4-methoxy-phenyl)-2-methoxy-ethylidene]amino]oxymethyl]-3-methyl-phenyl]-2-methoxyimino-N-methyl-acetamide]	0%		1%	1%	92%	97%	6%	2%								
